In the CheMixHub viscosity set:

Experiment: xn = mol fraction of the nth substance listed

Clc1cccc2ccccc12 + Cc1cc(C)cc(C)c1
viscosity [mPa·s], 101.33 kPa
Details	x1 = 0.0983	x1 = 0.2041	x1 = 0.2992	x1 = 0.3988	x1 = 0.4984	x1 = 0.6008	x1 = 0.6999	x1 = 0.8017	x1 = 0.9016
298.15 K	0.688	0.807	0.929	1.086	1.251	1.476	1.706	2.019	2.376
303.15 K	0.644	0.753	0.863	1.003	1.15	1.346	1.551	1.826	2.138
308.15 K	0.605	0.703	0.803	0.927	1.062	1.239	1.419	1.661	1.935

CCCC(C)C + CCCCCCCCCCCCCCCC
298 K, 101.33 kPa
Details	viscosity [mPa·s]
x1 = 0.1177	2.572
x1 = 0.2071	2.199
x1 = 0.3082	1.835
x1 = 0.4013	1.53
x1 = 0.4982	1.241
x1 = 0.6029	0.9821
x1 = 0.7034	0.7606
x1 = 0.8025	0.5679
x1 = 0.9006	0.3949

COCCOCCOCCOCCOC + COC(=O)OC
298.15 K, 101.33 kPa
Details	viscosity [mPa·s]
x1 = 0.0013	0.595
x1 = 0.0051	0.603
x1 = 0.0117	0.623
x1 = 0.0228	0.642
x1 = 0.0349	0.673
x1 = 0.0584	0.726
x1 = 0.0861	0.792
x1 = 0.1164	0.875
x1 = 0.1595	0.994
x1 = 0.2094	1.132
x1 = 0.3042	1.414
x1 = 0.3316	1.499
x1 = 0.3593	1.576
x1 = 0.3994	1.703
x1 = 0.4379	1.815
x1 = 0.477	1.945
x1 = 0.5477	2.159
x1 = 0.6174	2.382
x1 = 0.6892	2.606
x1 = 0.7492	2.781
x1 = 0.7839	2.888
x1 = 0.8643	3.113
x1 = 0.9142	3.237
x1 = 0.949	3.324
x1 = 0.9732	3.369

CCc1ccccc1 + CCCO
viscosity [mPa·s], 101.33 kPa
Details	x2 = 0.3	x2 = 0.5	x2 = 0.7	x2 = 0.9
303 K	0.646	0.826	1.01	1.335
313 K	0.561	0.697	0.839	1.084
323 K	0.494	0.598	0.7	0.886

N#CCCCCC#N + CC(=O)N(C)C
303.15 K, 101.33 kPa
Details	viscosity [mPa·s]
x1 = 0.0999	0.9801
x1 = 0.2976	1.363
x1 = 0.3998	1.666
x1 = 0.4988	2.029
x1 = 0.5898	2.42
x1 = 0.699	2.965
x1 = 0.8491	3.85

Clc1ccccc1 + CCCCCO
293.15 K, 101.33 kPa
Details	viscosity [mPa·s]
x2 = 0.0511	0.816
x2 = 0.1017	0.852
x2 = 0.1449	0.892
x2 = 0.198	0.936
x2 = 0.2665	1.017
x2 = 0.3688	1.195
x2 = 0.4687	1.387
x2 = 0.5602	1.637
x2 = 0.5789	1.697
x2 = 0.7339	2.339
x2 = 0.8618	3.062
x2 = 0.9524	3.666

CCc1ccccc1 + CCCCO
298.15 K, 101.33 kPa
Details	viscosity [mPa·s]
x2 = 0.1608	0.666
x2 = 0.2901	0.735
x2 = 0.4235	0.849
x2 = 0.5335	0.999
x2 = 0.6392	1.183
x2 = 0.7407	1.435
x2 = 0.8339	1.756
x2 = 0.9191	2.126

CCc1ccccc1 + CN(C)C=O
viscosity [mPa·s], 101.33 kPa
Details	303.15 K	313.15 K
x2 = 0.0997	0.597	0.542
x2 = 0.1996	–	0.556
x2 = 0.1997	0.614	–
x2 = 0.2997	–	0.568
x2 = 0.2999	0.631	–
x2 = 0.4154	0.652	0.584
x2 = 0.5109	0.667	0.597
x2 = 0.584	0.679	0.608
x2 = 0.6991	0.696	0.625
x2 = 0.8014	0.709	0.641
x2 = 0.8872	0.719	0.652

CCOP(=O)(OCC)OCC + CNC=O
298.15 K, 101.3 kPa
Details	viscosity [mPa·s]
x1 = 0.0969	1.719
x1 = 0.1954	1.713
x1 = 0.294	1.689
x1 = 0.399	1.654
x1 = 0.5004	1.625
x1 = 0.5987	1.599
x1 = 0.6978	1.571
x1 = 0.799	1.546
x1 = 0.8929	1.524

CCCCn1cc[n+](C)c1.F[P-](F)(F)(F)(F)F + CC(C)=O
Details	viscosity [mPa·s]
298.15 K, 101 kPa, x2 = 0.1935	88.9

Clc1cccc2ccccc12 + Cc1ccccc1
viscosity [mPa·s], 101.33 kPa
Details	x1 = 0.0995	x1 = 0.1995	x1 = 0.3037	x1 = 0.3973	x1 = 0.4962	x1 = 0.597	x1 = 0.6945	x1 = 0.7972	x1 = 0.8918
298.15 K	0.596	0.711	0.838	0.979	1.16	1.357	1.614	1.941	2.321
303.15 K	0.561	0.665	0.788	0.91	1.074	1.249	1.484	1.764	2.091
308.15 K	0.529	0.626	0.727	0.849	0.995	1.153	1.361	1.616	1.88
